{"source": "paper PMC7898822", "about": "“RNA‐PROTACs: Degraders of RNA‐Binding Proteins” (Angewandte Chemie (International Ed. in English), 2020)", "key": {"[1]": {"system": "Lin28B", "experiment": "Western blot of Lin28B in K562 cells", "type": "cell-based, human", "conditions": "48 h", "description": "Finally, we tested RNA‐PROTACs for their ability to degrade their target in two cell lines: the embryonic NT2/D1 cell line, which expresses high levels of Lin28A, ^[13a] and K562 cells which express Lin28A and Lin28B. […] Suppression of the target was not quantitative, as is often observed from testing PROTAC reagents without an optimization of the targeting ligand, the linker and the E3 system. Furthermore, there was no statistical difference in the activity of the 7‐mer and 11‐mer reagents. […] The reagents had no discernible effect on cell toxicity (Figure S11). […] Finally, we co‐treated K562 cells with ORN3P1 and MG132, a reversible inhibitor of the 26S proteasome. […]\noligonucleotides ([…]) into 15N-labeled Lin28-ZnF12 in 10 mM HEPES pH 7.0, 1.5 mM β-mercaptoethanol, 0.15 mM ZnCl2 and monitored by 1H-15N-HSQC at 303K.\nFluorescence Polarization Assay. Fluorescence polarization titration assay was carried out by titrating Lin28_ZKD protein into FAM-labeled PreE-let-7 at a 10 nM final concentration and buffer (10 mM HEPES, 150 mM NaCl, 10 µM ZiCl2, pH 7,4). […] The fluorescence anisotropy was measured on a Spectra Max Paradigm multimode plate reader (Molecular Devices). The fluorescence polarization competition assay was carried out in a similar fashion, except compounds were titrated into buffer containing Lin28_ZKD and FAM-labeled preE-let-7. […]"}, "[2]": {"system": "Lin28A", "experiment": "Confocal microscopy, LIN28A level in K562 cells", "type": "cell-based, human", "conditions": "FAM labelled ORN3P1, 1 µM, 24 h"}, "[3]": {"biological_target": "T1, Lin28_ZKD (Homo sapiens, UniProt Q9H9Z2)", "T1 construct": "construct encoding amino acids 124–186 of human Lin28; His6; made in house; host or cells: Escherichia coli BL21 (DE3) Codon+ (RIL)", "T1 sequence (Q9H9Z2 124-186)": "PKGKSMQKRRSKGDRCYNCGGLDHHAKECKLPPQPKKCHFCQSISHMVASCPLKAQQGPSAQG", "experiment": "Fluorescence polarization competition assay (displacement of let7FAM from Lin28_ZKD)", "type": "binding", "conditions": "competition FP, conjugate vs parent", "method": "Fluorescence Polarization Assay. Fluorescence polarization titration assay was carried out by titrating Lin28_ZKD protein into FAM-labeled PreE-let-7 at a 10 nM final concentration and buffer (10 mM HEPES, 150 mM NaCl, 10 µM ZiCl2, pH 7,4). The assay plate was briefly vortexed, and air bubbles were removed by spinning at 1000 rpm. The fluorescence anisotropy was measured on a Spectra Max Paradigm multimode plate reader (Molecular Devices). The fluorescence polarization competition […]\npreE-let-7. The concentration of Lin28_ ZKD is kept at 40 nM, a value in the range of the dissociation constant of Lin28_ZKD and preE-let-7 determined through fluorescence polarization titration assay, whereas preE-let-7 concentration is kept constant at 10 nM. FP competitive binding assays were performed on 384-well plates (#3575, Corning) with a total well volume of 10 µL.\nFluorescence polarization readings were transferred into Prism 7.0 (GraphPad). All fluorescence polarization assays were repeated at least three times and the anisotropy values fitted using GraphPad Prism software using 1:1 binding/inhibition model. […]"}, "[4]": {"system": "Lin28A", "experiment": "Western blot of Lin28A in K562 cells", "type": "cell-based, human", "description": "Finally, we tested RNA‐PROTACs for their ability to degrade their target in two cell lines: the embryonic NT2/D1 cell line, which expresses high levels of Lin28A, ^[13a] and K562 cells which express Lin28A and Lin28B. […] Finally, we co‐treated K562 cells with ORN3P1 and MG132, a reversible inhibitor of the 26S proteasome. […] In order to explore the versatility of RNA‐PROTACs with non peptide‐based VHL ligands, we conjugated small‐molecule VH032 ^[38] to ORN3 via an amino linker to yield ORN3VH032 (Figure S1). […]"}}}
{"smiles": "CC[C@H](C)[C@H](NC(=O)[C@H](Cc1ccc(O)cc1)NC(=O)[C@@H]1C[C@@H](O)CN1C(=O)[C@H](C)NC(=O)[C@H](CC(C)C)NC(=O)CCCCCNC(=O)[C@@H](N)CSC1CC(=O)N(CCOP(=O)(S)OC[C@H]2O[C@@H](n3cnc4c(N)ncnc43)[C@H](OCCOC)[C@@H]2OP(=O)(S)OC[C@H]2O[C@@H](n3cnc4c(=O)[nH]c(N)nc43)[C@H](OCCOC)[C@@H]2OP(=O)(S)OC[C@H]2O[C@@H](n3cnc4c(=O)[nH]c(N)nc43)[C@H](OCCOC)[C@@H]2OP(=O)(S)OC[C@H]2O[C@@H](n3cnc4c(N)ncnc43)[C@H](OCCOC)[C@@H]2OP(=O)(S)OC[C@H]2O[C@@H](n3cnc4c(=O)[nH]c(N)nc43)[C@H](OCCOC)[C@@H]2OP(=O)(S)OC[C@H]2O[C@@H](n3cnc4c(N)ncnc43)[C@H](OCCOC)[C@@H]2OP(=O)(S)OC[C@H]2O[C@@H](n3cc(C)c(=O)[nH]c3=O)[C@H](OCCOC)[C@@H]2O)C1=O)C(=O)O", "note": "(some centres unmarked) [ORN3P1]", "values": [{"measurement": "effect on Lin28B", "setting": "[1]", "value": "little effect on Lin28B"}, {"measurement": "LIN28A degradation by confocal microscopy", "setting": "[2]", "value": "LIN28A is degraded"}, {"measurement": "competition for Lin28_ZKD relative to parent unconjugated oligonucleotides", "setting": "[3]", "value": "competed slightly more strongly"}, {"measurement": "Lin28A suppression with MG132 co-treatment", "setting": "[4]; K562 cells co-treated with 100 nM MG132, 48 h", "value": "largely attenuated Lin28A suppression"}, {"measurement": "suppression of Lin28A", "setting": "[4]; K562 cells, highest concentration, 48 h, western blot, three independent experiments", "value": 50, "unit": "%"}]}
